# From patent publication US6537577B1, “Method of prophylaxis for bovine mastitis” (Bio Medical Development Corporation, priority 2001, dated 2003)
# Values joined by “and” are separate entries in the source; they are usually repeats but may differ in a detail not shown here. Equal entries are not always repeated.
# Tests used:
# Staph. aureus ATCC 29740 [1] = experiment: Excised teat study, Trial 1; type: cell-based, Staphylococcus aureus
# Protocol: (§1) Teats were prepared as described earlier. The pathogen strains that were used for this study were Staph. aureus ATCC 29740 and Strep. Agalactiae ATCC 27956. A culture of Strep. Agalactiae was prepared by thawing a frozen vial of Strep. Agalactiae and plating on a TSA blood plate. After 24 hours incubation at 37° C., five 6-ml tubes of TSB were inoculated with approximately six colonies of Strep. Agalactiae each. These cultures were incubated at 37° C. for approximately 16 hours and then used to inoculate 250 ml of TSB. This culture was incubated on a gyratory shaker for approximately 5.5 hours. Serial dilutions were prepared in proteose peptone, and 0.1 ml was plated on TSA. Plates were incubated for 24 hours at 37° C. and colonies were counted to determine the microbial concentration of the stock suspension.
# (§2) The dilution required to prepare a challenge inoculum of approximately 1×10^8 colony-forming units (cfu)/ml of Staph. aureus or Strep. […] Challenge suspensions of Staph. aureus and Strep. Agalactiae containing approximately 1×10^8 cfu/ml of each organism (diluted with pasteurized milk) were prepared and used for the excised teat trials. The quenching solution was letheen broth (Difco Laboratories) modified to contain 1% sodium thiosulfate (Sigma Chemical Co., St. Louis, Mo.).
# (§3) Agalactiae, respectively. […] Teats were dipped in the bacterial challenge suspensions once to a depth of approximately 15 mm and allowed to drain for 5 minutes, then dipped with the test products to a depth of approximately 30 mm and drained for an additional 10 minutes. For the challenged, but undipped negative control teats, the drainage time was 15 minutes. […] This coating film peeling from each teat was placed in sterile blood dilution vials (Baxter Diagnostics). Remaining organisms on teat skin were then removed by rinsing each teat with approximately 5 ml of quencher expressed from a polyethylene wash bottle into the same vial containing the coating film peeling. Each vial was vortexed for 5 seconds before plating.
# (§4) For all three trials, serial dilutions of peelings or rinses were made in 0.1% proteose peptone, and platinf was in 0.1-ml aliquots on Mannitol Salt agar (Becton Dickinson) for Staph. aureus and TKT/FC agar (Bccton Dickinson) with 0.3% thallium acetate (Sigma Chemical Co.) for Strep. Agalactiae. […] Plates were incubated for 24 hours at 37° C. and colonies were counted. The geometric mean count of the plates was determined, multiplied by […] to express the total volume of rinse, and then multiplied by the dilution factor to yield the total cfu per teat. In cases in which no organisms were recovered from a teat, the value of 0.01 was substituted fro zero in order statistically determine the mean cfu counts.
# (§5) The same set of teats was used for each trial. […]
# Staph. aureus ATCC 29740 [2] = experiment: Excised teat study, preliminary trial; type: cell-based, Staphylococcus aureus; details: for colony count per plate: plates 1-2, count no. 1 and 2
# Description: To evaluate the microbicidal activity of the compositions of EXAMPLE 1 and EXAMPLE 2, basic excised teat models used for these experiments are based on providing procedures by Twomey, A, and M. A Arnold, National Dairy Lab. Report, Ruaburn Agric. Res. Center, Hamilton, New Zealand.
# Excess skin and tissue were trimmed, teats were washed in a mild detergent and warm water, rinsed in water, dried, and dipped in 70% ethyl alcohol. Teats were placed in plastic bags in a glycerin and water solution, and subsequently frozen at −20° C. until further use. Frozen teats were thawed in warm water, rinsed in water, dried, and dipped in 70% ethyl alcohol, dried with paper towels, and suspended by metal clips from a glass rod.
# The pathogen strain that was used for this study was Staph. aureus ATCC 29740. For preparation of Staph. aureus, five 6-ml tubes of trypticase soy broth (TSB) (Becton Dickinson, Cockeysville, Md.) were inoculated from a culture of Staph. aureus actively growing on trypticase soy agar (TSA) (Becton Dickinson) containing 5% bovine calf blood. These tubes were incubated for 5 to 7 hours at 37° C., and this culture was used to inoculate 250 ml of TSB, which was incubated on a gyratory shaker for 16 hours. After incubation, bacterial cells were pelleted by centrifugation at approximately 7000×g, washed twice in 0.1% proteose peptone (Difco Laboratories, Detroit, Mich.), and resuspended to approximately 200 ml in proteose peptone. Serial dilutions were prepared in proteose peptone, and 0.1 ml was plated on TSA. Plates, were incubated for 24 hours at 37° C. and colonies were counted to determine the microbial concentration of the stock suspension.
# Challenge suspensions of Staph. aureus containing approximately 1×10^8 cfu/ml of each organism (diluted with pasteurized milk) were prepared and used for the excised teat trials. The quenching solution was letheen broth (Difco Laboratories) modified to contain 1% sodium thiosulfate (Sigma Chemical Co., St. Louis, Mo.).
# Teats were dipped in a Staph. aereus bacterial suspension to a depth of 15 mm and allowed to drain for 5 minutes. Teats were then dipped into two coating formulations of EXAMPLE 1 and EXAMPLE 2, (Formula No. 3 and Formula No. 5, respectively) to a depth of approximately 30 mm and allowed to drain for 10 minutes. […] The coating was then removed from each teat using a sterile cotton swab by rolling the edge of the softened film using a downward motion toward the teat apex, placed in 5 ml of quencher in sterile blood dilution vials (Baxter Diagnostics, McGaw Park, Ill.), mixed by vortexing for 5 seconds, and after serial dilution, a 0.1-ml aliquot was plated onto TSA. The quenching solution (Bacto-Letheen Broth) was used to inactivate the chlorhexidine germicide and prevent further bacterial killing upon culture. Immediately after the dried coating products were removed from the teats, each teat was rinsed to a total volume of 5 ml of quencher, the rinse collected in sterile blood dilution vials (Baxter Diagnostics) separate from the peelings, mixed by vortexing for 5 seconds, and after serial dilution, a 0.1-ml aliquot was plated to determine the number of organisms remaining on the teat after removal of the coating.
# [3] = tested on: Strep. Agalactiae ATCC 27956; experiment: Excised teat study, Trial 2; type: cell-based, Streptococcus agalactiae
# Protocol: as §1, §2, §3, §4, §5
# [4] = log of total organisms recovered
# [5] = of plate counts at the treatment's dilution
# [6] = peeling and rinse combined, total cfu per teat
compound,measurement,setting,value
"CC(=O)O [2.5% acetic acid, acetic acid]",Log,Staph. aureus ATCC 29740 [1]; [4],6.66
same,Geometric Mean,Staph. aureus ATCC 29740 [1]; [5],92.41
same,Total organisms Recovered,Staph. aureus ATCC 29740 [1]; [6],"4,620,500"
same,Log reduction,Staph. aureus ATCC 29740 [1]; versus negative control,0.76
same,Total organisms Recovered,Staph. aureus ATCC 29740 [2],"16,029,000"
same,colony count per plate,Staph. aureus ATCC 29740 [2]; Dilution −3,TNTC^1 and TNTC
same,colony count per plate,Staph. aureus ATCC 29740 [2]; Dilution −4,327 and 268 and 460 and 262
same,Log,Staph. aureus ATCC 29740 [2]; [4],7.20
same,Geometric Mean,"Staph. aureus ATCC 29740 [2]; of plate counts, dilution −4",320.58^3
same,Log reduction,Staph. aureus ATCC 29740 [2]; versus negative control,0.44
same,Log,[3]; [4],6.11
same,Geometric Mean,[3]; [5],25.98
same,Total organisms Recovered,[3]; [6],"1,299,000"
same,Log reduction,[3]; versus negative control,0.93
